Assay results published in patent US20210127673A1, “HERBICIDES” (SYNGENTA PARTICIPATIONS AG, priority 2016, published 2021).

Assays:
Assay type in all cases: in vivo
Conditions in all cases: 1000 g/ha, evaluated after 13 days
[1] = system: Avena fatua (AVEFA); assay: Pre-emergence herbicidal activity, Avena fatua; design: key: 5=total damage to plant; 0=no damage to plant
Protocol: (§1) Seeds of a variety of test species were sown in standard soil in pots: Triticum aestivium (TRZAW), Avena fatua (AVEFA), Alopecurus myosuroides (ALOMY), Echinochloa crus-galli (ECHCG), Lolium perenne (LOLPE), Zea Mays (ZEAMX), Abutilon theophrasti (ABUTH), Amaranthus retroflexus (AMARE) and Setaria faberi (SETFA). After cultivation for one day (pre-emergence) under controlled conditions in a glasshouse (at 24/16° C., day/night; 14 hours light; 65% humidity), the plants were sprayed with an aqueous spray solution derived from the formulation of the technical active ingredient in acetone/water (50:50) solution containing 0.5% Tween 20 (polyoxyethelyene sorbitan monolaurate, CAS RN 9005-64-5). The test plants were then grown in a glasshouse under controlled conditions (at 24/16°, day/night; 14 hours light; 65% humidity) and watered twice daily. After 13 days, the test was evaluated (5=total damage to plant; 0=no damage to plant).

[2] = system: Triticum aestivium (TRZAW); assay: Pre-emergence herbicidal activity, Triticum aestivium; design: key: 5=total damage to plant; 0=no damage to plant
Protocol: as §1

[3] = system: Triticum aestivium (TRZAW); assay: Post-emergence herbicidal activity, Triticum aestivium; design: key: 5=total damage to plant; 0=no damage to plant
Protocol: (§2) Seeds of a variety of test species were sown in standard soil in pots: Triticum aestivium (TRZAW), Avena fatua (AVEFA), Alopecurus myosuroides (ALOMY), Echinochloa crus-galli (ECHCG), Lolium perenne (LOLPE), Zea Mays (ZEAMX), Abutilon theophrasti (ABUTH), Amaranthus retroflexus (AMARE) and Setaria faberi (SETFA). After 8 days cultivation (post-emergence) under controlled conditions in a glasshouse (at 24/16° C., day/night; 14 hours light; 65% humidity), the plants were sprayed with an aqueous spray solution derived from the formulation of the technical active ingredient in acetone/water (50:50) solution containing 0.5% Tween 20 (polyoxyethelyene sorbitan monolaurate, CAS RN 9005-64-5). The test plants were then grown in a glasshouse under controlled conditions (at 24/16° C., day/night; 14 hours light; 65% humidity) and watered twice daily. After 13 days, the test was evaluated (5=total damage to plant; 0=no damage to plant).

[4] = system: Alopecurus myosuroides (ALOMY); assay: Pre-emergence herbicidal activity, Alopecurus myosuroides; design: key: 5=total damage to plant; 0=no damage to plant
Protocol: as §1

[5] = system: Alopecurus myosuroides (ALOMY); assay: Post-emergence herbicidal activity, Alopecurus myosuroides; design: key: 5=total damage to plant; 0=no damage to plant
Protocol: as §2

[6] = system: Lolium perenne (LOLPE); assay: Post-emergence herbicidal activity, Lolium perenne; design: key: 5=total damage to plant; 0=no damage to plant
Protocol: as §2

[7] = system: Setaria faberi (SETFA); assay: Pre-emergence herbicidal activity, Setaria faberi; design: key: 5=total damage to plant; 0=no damage to plant
Protocol: as §1

[8] = system: Echinochloa crus-galli (ECHCG); assay: Post-emergence herbicidal activity, Echinochloa crus-galli; design: key: 5=total damage to plant; 0=no damage to plant
Protocol: as §2

[9] = system: Avena fatua (AVEFA); assay: Post-emergence herbicidal activity, Avena fatua
Protocol: as §2

[10] = system: Lolium perenne (LOLPE); assay: Pre-emergence herbicidal activity, Lolium perenne; design: key: 5=total damage to plant; 0=no damage to plant
Protocol: as §1

[11] = system: Setaria faberi (SETFA); assay: Post-emergence herbicidal activity, Setaria faberi; design: key: 5=total damage to plant; 0=no damage to plant
Protocol: as §2

[12] = system: Echinochloa crus-galli (ECHCG); assay: Pre-emergence herbicidal activity, Echinochloa crus-galli; design: key: 5=total damage to plant; 0=no damage to plant
Protocol: as §1

SMILES	Control of AVEFA after pre-emergence application (score 0-5) [1]	Control of TRAZW after pre-emergence application (score 0-5) [2]	Control of TRAZW after post-emergence application (score 0-5) [3]	Control of ALOMY after pre-emergence application (score 0-5) [4]	Control of ALOMY after post-emergence application (score 0-5) [5]	Control of LOLPE after post-emergence application (score 0-5) [6]	Control of SETFA after pre-emergence application (score 0-5) [7]	Control of ECHCG after post-emergence application (score 0-5) [8]	Control of AVEFA after post-emergence application (score 0-5) [9]	Control of LOLPE after pre-emergence application (score 0-5) [10]	Control of SETFA after post-emergence application (score 0-5) [11]	Control of ECHCG after pre-emergence application (score 0-5) [12]
C#CCNC(=O)Nc1ccc(-c2cncc(F)c2)nc1C(F)(F)F [Compound B41]	1	0	0	0	0	2	5	4	3	1	5	4
C#CC(C)(C)NC(=O)Nc1ccc(-c2cncc(F)c2)nc1C(F)(F)F [Compound B102]	3	0	1	0	1	3	5	5	4	2	5	4
NC(=O)Nc1ccc(-c2cncc(F)c2)nc1C(F)(F)F [Compound B47]	1	0	0	0	0	2	5	4	3	1	5	4
O=C(Nc1ccc(-c2cncc(F)c2)nc1C(F)(F)F)N1CCS(=O)(=O)C1 [Compound B116, N-[6-(5-fluoro-3-pyridyl)-2-(trifluoromethyl)-3-pyridyl]-1,1-dioxo-1,3-thiazolidine-3-carboxamide]	2	0	1	0	1	3	5	4	3	1	5	4
O=C1NCCN1c1ccc(-c2cncc(F)c2)nc1C(F)(F)F [Compound B64]	0	0	0	0	0	1	2	4	3	0	4	1
CC(C)(C)OC(=O)N(C(=O)OC(C)(C)C)c1ccc(-c2cncc(F)c2)nc1C(F)(F)F [Compound B113]	3	0	2	1	1	3	5	5	4	1	5	5
CC(C)NC(=O)Nc1ccc(-c2cncnc2)nc1C(F)(F)F [Compound B44]	2	0	1	0	1	2	3	4	3	1	4	3
CNC(=O)Nc1ccc(-c2cncc(F)c2)nc1C(F)(F)F [Compound B49]	2	0	0	0	0	2	4	4	2	0	4	3
CC(C)(C)OC(=O)Nc1ccc(-c2cncc(F)c2)nc1-c1ccccc1 [Compound B112, tert-butyl N-[6-(5-fluoro-3-pyridyl)-2-phenyl-3-pyridyl]carbamate]	0	0	0	0	0	0	4	1	1	0	3	3
CN1CCN(C(=O)Nc2ccc(-c3cncc(F)c3)nc2C(F)(F)F)CC1 [Compound B48]	1	0	0	0	0	1	4	4	2	1	5	3
